Converted amounts (≈) assume the structure as drawn. Bridge positions count the residues as written; N and C are the ends. Square brackets hold non-standard residues; d marks the D form. Peptide text beside a SMILES is read from it. * marks the point of attachment. Heptanoyl(6-Me) = CC(C)CCCCC(=O)*; dOrn = NCCC[C@@H](N)C(=O)O; Nonanoyl = CCCCCCCCC(=O)*; X1 = CC[C@H](C)CCCCC(=O)*; dDab = NCC[C@@H](N)C(=O)O; Orn = NCCC[C@H](N)C(=O)O; Dab = NCC[C@H](N)C(=O)O; Dap = NC[C@H](N)C(=O)O
Experiments:
Type in all cases: cell-based
[1] = Nephrotoxicity assay: in vitro cytotoxicity of HK-2 cells by CCK-8 assay; conditions: human, HK-2 cells (human renal), 72 h incubation with drug-containing medium
Method: In vitro cytotoxicity detection of HK-2 cells was performed by the CCK-8 assay.
The culture medium for human renal HK-2 cells was a complete RPMI-1640 medium (Invitrogen) supplemented with 10% fetal bovine serum (FBS, Gibco). The cryopreservation solution was composed of 90% FBS and 10% dimethyl sulfoxide (DMSO), and the cells were preserved long-term in liquid nitrogen. Cells were cultured in a sterile incubator with a humidified atmosphere containing 5% CO2 at 37°C. When the cell density reached 70%-80%, cell digestion and subculture were conducted. The cyclic lipopeptide compounds prepared in Examples 1-120 were weighed and dissolved in sterile water to prepare a mother solution with a concentration of 1 mg/mL. Drug-containing culture media were then formulated, with the final concentrations set as 500, 250, 200, 100, 50, 25, and 12.5 µg/mL, respectively. Cells were adjusted to a density of 5 × 10^4 cells/mL and seeded into 96-well plates, with 100 µL of cell suspension added to each well. After stable incubation for 24 h, the original medium was replaced with the prepared drug-containing medium, and the plates were incubated in the incubator for an additional 72 h. The medium was gently aspirated, and 100 µL of blank medium containing 10% CCK-8 was added to each well. After incubation in the incubator for 3 h, the optical density (OD) values at 450 nm were measured using a BIOTEK microplate reader. The experiment was repeated three times. For each replicate, polymyxin B was set as the positive drug, and a drug-free blank group was established as the control. The cell viability (%) was calculated by the formula: Cell viability (%) = [(OD of drug-treated group - OD of zero-setting) / (OD of drug-free group - OD of zero-setting)] × 100%. The half-maximal inhibitory concentration (IC50) values were calculated through logarithmic regression analysis.
The cells used for the nephrotoxicity assay were obtained from the ATCC ( American Type Culture Collection). The Cell Counting Kit-8 (CCK-8) used in the assay was supplied by Beyotime Biotechnology Co., Ltd.

[2] = system: Escherichia coli ATCC BAA-2340 (KPC); conditions: ATCC BAA-2340
Method: (§1) The minimal inhibitory concentration (MIC) was determined by the broth microdilution method according to the recommended procedures of the Clinical and Laboratory Standards Institute (CLSI).
(§2) An appropriate amount of the cyclic lipopeptide compounds prepared in Examples 1-120 and the reference standards were weighed and dissolved in sterile pure water. An appropriate volume of the mother solution was subjected to ten-fold dilution with sterile Mueller-Hinton (MH) broth to a concentration of 0.256 mg/mL. Half of the drug solution was aliquoted into 96-well reagent reservoirs, while the other half was subjected to two-fold serial dilution with sterile MH broth before being transferred into deep-well reagent reservoirs. The above steps were repeated, so that the drug concentrations in the reagent reservoirs were adjusted to 128, 64, 32, 16, 8, 4, 2, 1, 0.5, 0.25, 0.125 and 0.06 mg/L in sequence, and all solutions were prepared and used immediately. Several colonies were picked from agar plates cultured for 18-24 h and directly suspended in sterile normal saline, and the concentration of the bacterial suspension was adjusted to 0.5 McFarland units. The calibrated bacterial suspension was diluted with MH broth to a concentration of (4-8) × 10^5 colony-forming units per milliliter (CFU/mL) and prepared and used immediately. A volume of 100 µL of the aforementioned compounds of the present disclosure (e.g., the compounds prepared in the examples) and reference solutions at different concentrations was separately pipetted into wells 1 to 12 of sterile 96-well polystyrene plates, and an additional 100 µL of the aforementioned inoculum was added to each well. The final concentrations of the samples in the wells were adjusted to 64, 32, 16, 8, 4, 2, 1, 0.5, 0.25, 0.125, 0.06 and 0.03 mg/L, respectively, and the final concentration of the inoculum in each well was (2-4) × 10^5 CFU/mL. Additional growth control wells were set up, each containing 100 µL of the inoculum and 100 µL of sterile MH broth. The test substances and inocula in all wells were mixed thoroughly and then sealed. The inoculated 96-well plates were incubated in an incubator at 35-37°C for 16-20 h.
(§3) The strains used for the antibacterial activity assay were obtained from the American Type Culture Collection (ATCC) and clinical isolates.
(§4) The strains employed for the antibacterial activity assay included Escherichia coli ATCC BAA-2523, ATCC BAA-2340 (KPC), Klebsiella pneumoniae KPN+19-15, ATCC BAA-1705 (KPC), Pseudomonas aeruginosa PAE19-3, ATCC 27853, Acinetobacter baumannii ABA19-1, and NCTC 13304 (OXA-27).

[3] = system: Klebsiella pneumoniae KPN+19-15; conditions: KPN+19-15
Method: as §1, §2, §3, §4

[4] = system: Acinetobacter baumannii NCTC 13304 (OXA-27); conditions: NCTC 13304
Method: as §1, §2, §3, §4

[5] = system: Escherichia coli ATCC BAA-2523; conditions: ATCC BAA-2523
Method: as §1, §2, §3, §4

[6] = system: Acinetobacter baumannii ABA19-1; conditions: ABA19-1
Method: as §1, §2, §3, §4

[7] = system: Pseudomonas aeruginosa ATCC 27853; conditions: ATCC 27853
Method: as §1, §2, §3, §4

[8] = system: Pseudomonas aeruginosa PAE19-3; conditions: PAE19-3
Method: as §1, §2, §3, §4

[9] = system: Klebsiella pneumoniae ATCC BAA-1705 (KPC); conditions: ATCC BAA-1705
Method: as §1, §2, §3, §4

Row | Structure (SMILES) | IC50 at 72 h [1] [µg/mL] | MIC [2] [µg/mL] | MIC [3] [µg/mL] | MIC [4] [µg/mL] | MIC [5] [µg/mL] | MIC [6] [µg/mL] | MIC [7] [µg/mL] | MIC [8] [µg/mL] | MIC [9] [µg/mL]
1 | CC(C)CCCCC(=O)N[C@@H](CCN)C(=O)N[C@H](C(=O)N[C@H](CO)C(=O)N[C@H]1CCNC(=O)[C@H]([C@@H](C)O)NC(=O)[C@H](CCN)NC(=O)[C@H](CCN)NC(=O)[C@H]([C@@H](C)O)NC(=O)[C@@H](Cc2ccccc2)NC(=O)[C@H](CCCN)NC1=O)[C@@H](C)O [Compound 67, 6-methylheptanoyl-Dab-Thr-D-Ser-ring(4-10)[Dab-Orn-D-Phe-Thr-Dab-Dab-Thr]] ({Heptanoyl(6-Me)}-[Dab]T[dS][Dab][Orn][dF]T[Dab][Dab]T; lactam 4-C) | > 500 | 0.25 (≈ 0.212 µM) | 0.5 (≈ 0.424 µM) | 0.25 (≈ 0.212 µM) | 0.25 (≈ 0.212 µM) | 0.25 (≈ 0.212 µM) | 64 (≈ 54.3 µM) | 4 (≈ 3.39 µM) | 0.25 (≈ 0.212 µM)
2 | CC[C@H](C)CCCCC(=O)N[C@@H](CCN)C(=O)N[C@H](C(=O)N[C@H](CO)C(=O)N[C@H]1CCNC(=O)[C@H]([C@@H](C)O)NC(=O)[C@H](CCCN)NC(=O)[C@H](CCN)NC(=O)[C@H]([C@@H](C)O)NC(=O)[C@@H](Cc2ccccc2)NC(=O)[C@H](CCN)NC1=O)[C@@H](C)O [Compound 86, (S)-6-methyloctanoyl-Dab-Thr-D-Ser-ring(4-10)[Dab-Dab-D-Phe-Thr-Dab-Orn-Thr]] (X1-[Dab]T[dS][Dab][Dab][dF]T[Dab][Orn]T; lactam 4-C) | > 500 | 0.03 (≈ 0.0252 µM) | 0.5 (≈ 0.419 µM) | ≤0.03 | 0.03 (≈ 0.0252 µM) | 0.06 (≈ 0.0503 µM) | >64 | 64 (≈ 53.7 µM) | 0.25 (≈ 0.21 µM)
3 | CCCCCCCCC(=O)N[C@@H](CCN)C(=O)N[C@H](C(=O)N[C@H](CCCN)C(=O)N[C@H]1CCNC(=O)[C@H]([C@@H](C)O)NC(=O)[C@H](CCN)NC(=O)[C@H](CCN)NC(=O)[C@H](CC(C)C)NC(=O)[C@@H](Cc2ccccc2)NC(=O)[C@H](CCN)NC1=O)[C@@H](C)O [Compound 45, Nonanoyl-Dab-Thr-D-Orn-ring(4-10)[Dab-Dab-D-Phe-Leu-Dab-Dab-Thr]] (Nonanoyl-[Dab]T[dOrn][Dab][Dab][dF]L[Dab][Dab]T; lactam 4-C) | 139 ± 6.7 (≈ 114 µM) | 0.06 (≈ 0.0493 µM) | 0.125 (≈ 0.103 µM) | 0.06 (≈ 0.0493 µM) | 0.06 (≈ 0.0493 µM) | 0.125 (≈ 0.103 µM) | 0.5 (≈ 0.411 µM) | 2 (≈ 1.64 µM) | 0.06 (≈ 0.0493 µM)
4 | CC[C@H](C)CCCCC(=O)N[C@@H](CN)C(=O)N[C@H](C(=O)N[C@H](CCN)C(=O)N[C@H]1CCNC(=O)[C@H]([C@@H](C)O)NC(=O)[C@H](CCN)NC(=O)[C@H](CCN)NC(=O)[C@H](CC(C)C)NC(=O)[C@@H](CC(C)C)NC(=O)[C@H](CCN)NC1=O)[C@@H](C)O [Compound 96, (S)-6-methyloctanoyl-Dap-Thr-D-Dab-ring(4-10)[Dab-Dab-D-Leu-Leu-Dab-Dab-Thr]] (X1-[Dap]T[dDab][Dab][Dab][dL]L[Dab][Dab]T; lactam 4-C) | 207 ± 13.2 (≈ 179 µM) | 0.03 (≈ 0.026 µM) | 0.03 (≈ 0.026 µM) | 0.03 (≈ 0.026 µM) | 0.03 (≈ 0.026 µM) | 0.03 (≈ 0.026 µM) | 0.5 (≈ 0.433 µM) | 0.5 (≈ 0.433 µM) | 0.03 (≈ 0.026 µM)
